Measured values: PubChem BioAssay AID1963862 (Molecular Pharmacology Branch, DTP, NCI, 2024)

System: KRAS patient-derived spheroids with HUVEC/MSC, viability
Assay: Anticancer human tumor 941728-121-R-J1-PDC patient-derived lung adenocarcinoma cell line growth inhibition [KRAS2]
Conditions: for IC50: curve of first compound; for viability, T/C: stronger effect = lower value
Method in brief: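 Combination screen of spheroid viability in tumor-cell co-cultures with endothelial (HUVEC) and mesenchymal stem cell stroma. Each agent was tested in half-log dilutions, topping at clinical Cmax or at 10 microM without a known Cmax.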

[1] = second compound 0.1 µM, first compound 0.0316 µM
[2] = second compound 0.1 µM, first compound 0.1 µM
[3] = second compound 0.1 µM, first compound 0.316 µM
[4] = second compound 0.1 µM, first compound 1 µM
[5] = second compound 0.1 µM, first compound 3.16 µM
[6] = second compound 0.1 µM, first compound 10 µM
[7] = second compound 0.316 µM, first compound 0.0316 µM
[8] = second compound 0.316 µM, first compound 0.1 µM
[9] = second compound 0.316 µM, first compound 0.316 µM
[10] = second compound 0.316 µM, first compound 1 µM
[11] = second compound 0.316 µM, first compound 3.16 µM
[12] = second compound 0.316 µM, first compound 10 µM
[13] = second compound 1 µM, first compound 0.0316 µM
[14] = second compound 1 µM, first compound 0.1 µM
[15] = second compound 1 µM, first compound 0.316 µM
[16] = second compound 1 µM, first compound 1 µM
[17] = second compound 1 µM, first compound 3.16 µM
[18] = second compound 1 µM, first compound 10 µM
[19] = second compound 3.16 µM, first compound 0.0316 µM
[20] = second compound 3.16 µM, first compound 0.1 µM
[21] = second compound 3.16 µM, first compound 0.316 µM
[22] = second compound 3.16 µM, first compound 1 µM
[23] = second compound 3.16 µM, first compound 3.16 µM
[24] = second compound 3.16 µM, first compound 10 µM
[25] = second compound 10 µM, first compound 0.0316 µM
[26] = second compound 10 µM, first compound 0.1 µM
[27] = second compound 10 µM, first compound 0.316 µM
[28] = second compound 10 µM, first compound 1 µM
[29] = second compound 10 µM, first compound 3.16 µM
[30] = second compound 10 µM, first compound 10 µM
[31] = second compound 0.1 µM, first compound 0.01 µM
[32] = second compound 0.316 µM, first compound 0.01 µM
[33] = second compound 1 µM, first compound 0.01 µM
[34] = second compound 3.16 µM, first compound 0.01 µM
[35] = second compound 10 µM, first compound 0.01 µM
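Also: spheroids exposed to agents for seven days before readout.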

| Compound | IC50 (second compound 0.1 µM) [nM] | IC50 (second compound 0.316 µM) [nM] | IC50 (second compound 1 µM) [nM] | IC50 (second compound 3.16 µM) [nM] | IC50 (second compound 10 µM) [nM] | viability, T/C [1] [%] | viability, T/C [2] [%] | viability, T/C [3] [%] | viability, T/C [4] [%] | viability, T/C [5] [%] | viability, T/C [7] [%] | viability, T/C [8] [%] | viability, T/C [9] [%] | viability, T/C [10] [%] | viability, T/C [13] [%] | viability, T/C [14] [%] | viability, T/C [19] [%] | viability, T/C [20] [%] | viability, T/C [25] [%] | viability, T/C [26] [%] | also measured |
| --- | --- | --- | --- | --- | --- | --- | --- | --- | --- | --- | --- | --- | --- | --- | --- | --- | --- | --- | --- | --- | --- |
| Cn1nccc1Nc1nccc(-c2cc3c(s2)C(C)(C)N(CCN2CCOCC2)C3=O)n1 + CC1OCC2(CCN(c3cnc(Sc4ccnc(N)c4Cl)c(N)n3)CC2)C1N | 47.7 | < 31.6 | < 31.6 | < 31.6 | < 31.6 | 53.7 | 43.2 | 38.1 | 36 | 29.2 | 45.1 | 41.5 | 34.3 | 34.9 | 38.2 | 39.2 | 33.5 | 30.4 | 29 | 29.5 | viability, T/C [6]: 35.1%; viability, T/C [11]: 25.8%; viability, T/C [12]: 25%; viability, T/C [15]: 31.3%; viability, T/C [16]: 30%; viability, T/C [17]: 23.8%; viability, T/C [18]: 18.9%; viability, T/C [21]: 30.9%; viability, T/C [22]: 24.4%; viability, T/C [23]: 16.3%; viability, T/C [24]: 18.3%; viability, T/C [27]: 21.5%; viability, T/C [28]: 15.6%; viability, T/C [29]: 10.8%; viability, T/C [30]: 13.1% |
| CC(=O)OC12COC1CC(O)C1(C)C(=O)C(O)C3=C(C)C(OC(=O)C(O)C(NC(=O)OC(C)(C)C)c4ccccc4)CC(O)(C(OC(=O)c4ccccc4)C21)C3(C)C (stereo not given) + CNCc1ccccc1-c1csc(C(C)Nc2nc(C)nc3cc(OC)c(OC)cc23)c1 | < 10 | < 10 | < 10 | < 10 | < 10 | 37.4 | 32 | 38.3 | 34.3 | 41.8 | 28 | 27 | 25.9 | 29.3 | 34.3 | 34.5 | 0.11 | 0.09 | 0.09 | 0.1 | viability, T/C [31]: 35.7%; viability, T/C [32]: 28%; viability, T/C [11]: 30.2%; viability, T/C [33]: 29.2%; viability, T/C [15]: 36%; viability, T/C [16]: 38%; viability, T/C [17]: 33%; viability, T/C [34]: 18.7%; viability, T/C [21]: 0.11%; viability, T/C [22]: 0.1%; viability, T/C [23]: 31.5%; viability, T/C [35]: 0.14%; viability, T/C [27]: 0.13%; viability, T/C [28]: 28.4%; viability, T/C [29]: 0.21% |
| CN(C)C/C=C/C(=O)Nc1cc2c(Nc3ccc(F)c(Cl)c3)ncnc2cc1O[C@H]1CCOC1 + CNCc1ccccc1-c1csc(C(C)Nc2nc(C)nc3cc(OC)c(OC)cc23)c1 | < 0.316 | < 0.316 | < 0.316 | < 0.316 | < 0.316 | 31.6 | 35.6 | – | – | – | 25.6 | 29.9 | – | – | 20.6 | 19.4 | 0.13 | 0.18 | 0.04 | 0.32 | viability, T/C (second compound 0.1 µM, first compound 0.000316 µM): 44%; viability, T/C (second compound 0.1 µM, first compound 0.001 µM): 45.9%; viability, T/C (second compound 0.1 µM, first compound 0.00316 µM): 36.2%; viability, T/C [31]: 34.6%; viability, T/C (second compound 0.316 µM, first compound 0.000316 µM): 32.6%; viability, T/C (second compound 0.316 µM, first compound 0.001 µM): 24.5%; viability, T/C (second compound 0.316 µM, first compound 0.00316 µM): 28.5%; viability, T/C [32]: 23.8%; viability, T/C (second compound 1 µM, first compound 0.000316 µM): 20.5%; viability, T/C (second compound 1 µM, first compound 0.001 µM): 19.6%; viability, T/C (second compound 1 µM, first compound 0.00316 µM): 18.5%; viability, T/C [33]: 19.6%; viability, T/C (second compound 3.16 µM, first compound 0.000316 µM): 0.61%; viability, T/C (second compound 3.16 µM, first compound 0.001 µM): 0.24%; viability, T/C (second compound 3.16 µM, first compound 0.00316 µM): 0.15%; viability, T/C [34]: 0.14%; viability, T/C (second compound 10 µM, first compound 0.000316 µM): 0.05%; viability, T/C (second compound 10 µM, first compound 0.001 µM): 0.04%; viability, T/C (second compound 10 µM, first compound 0.00316 µM): 0.04%; viability, T/C [35]: 0.08% |
| O=C(c1cc(Cc2n[nH]c(=O)c3ccccc23)ccc1F)N1CCN(C(=O)C2CC2)CC1 + CNCc1ccccc1-c1csc(C(C)Nc2nc(C)nc3cc(OC)c(OC)cc23)c1 | > 10000 | < 31.6 | < 31.6 | < 31.6 | < 31.6 | 59 | 65.2 | 53.3 | 54.6 | 65.6 | 47.1 | 45.5 | 52.7 | 55.1 | 40.2 | 48 | 0.61 | 1.87 | 0.42 | 0.09 | viability, T/C [6]: 67.8%; viability, T/C [11]: 51.4%; viability, T/C [12]: 67%; viability, T/C [15]: 47.3%; viability, T/C [16]: 51.7%; viability, T/C [17]: 49.8%; viability, T/C [18]: 58.5%; viability, T/C [21]: 0.81%; viability, T/C [22]: 0.22%; viability, T/C [23]: 2.29%; viability, T/C [24]: 0.22%; viability, T/C [27]: 0.09%; viability, T/C [28]: 0.09%; viability, T/C [29]: 0.2%; viability, T/C [30]: 0.14% |
